The source of these data is US10174065B2, “Antidiabetic enolic glucoside of phenylpyruvic acid” (ZADEC APS, priority 2010, dated 2019).

Assay [1] concerns 3T3-L1 adipocytes. Briefly: Glucose uptake in transformed 3T3-L1 adipocytes (colourometric glucose oxidase method). The class given is cell-based. Conditions: for Glucose conc.: glucose remaining in the media after 3 hour exposure to the cells; for Glucose conc. / Glucose Uptake: media containing 8 mM glucose; for Glucose Uptake: glucose uptake from the media after 3 hour exposure; for % uptake: relative to DMSO vehicle = 100.00, 3 hour glucose uptake; for glucose uptake over a 3 hour culture period: 3T3-L1 adipose cells. How it is done: 3T3-L1 cells were transformed in culture using modified DMEM differentiation media supplemented with insulin, dexametasone and isobutylmethylxanthine and cultured for 3 days. The transformed 3T3-L1 adipocytes were then cultured for a further 5 days in modified DMEM supplemented with 10% FCS before being exposed to insulin, metformin and compounds of the present invention (see Table 1). Glucose uptake over a three (3) hour period was determined after the 5 days of treatment using a colourometric glucose oxidase method (Biovision Inc, USA).
The glucose concentration column represents the glucose concentration remaining in the media following three (3) hour exposure to the cells. The glucose uptake column represents glucose uptake from the media after a 3 hour exposure. SD represents the standard deviation. The percentage increases calculated from the relevant solvent vehicle and the P=values are reflected in the last two columns respectively.

The test system of assay [2] is Chang cells. As to the kind of experiment: 2-deoxy-[3H]-D-glucose uptake assay. The class given is cell-based. Conditions: Chang cell cultures, 3 hrs exposure. How it is done:
The glucose uptake of RX-1 and selected analogues after administration of test compounds to Chang cell cultures were determined in an operating protocol for the 2-deoxy-[^3H]-D-glucose. The protocol, which is described in more detail below, has been designed to test for the RX-1 (and RX-1 analogues) mediated glucose uptake. In Table the EC50 values for the uptake for RX-1 and representative analogues is shown.
Stock solutions of the RX-1 analogues supplied in cryo vials (DrugMode) was prepared by diluting the compound with […] sterile tissue culture grade water. This will yield a 5 mM stock solution. If the analogue […] an additional 50 μl methanol will be added (this will be recorded clearly on the log sheet). This will yield a 4 mM stock solution. Stock solutions will be kept on ice at all times and analogues will be stored in 20 μl aliquots at −80 C for subsequent use. Tubes that have been thawed will be clearly marked on the label.
RX-1 (10 μM) Positive Control Solution • To prepare a 10 μM RX-1 solution as positive control. Add 30 μl to 2970 μl modified DMEM media supplemented with 8 mM glucose.
RX-1 Analogue (31.6 μM) Test Solutions • To prepare a 31.6 μM RX-1 analogue test solution. Add 19 μl of the 5 mM to 2981 μl modified DMEM media supplemented with 8 mM glucose. To prepare a 31.6 μM RX-1 analogue test solution from a 4 mM stock solution, add 24 μl to 2976 μl modified DMEM media supplemented with 8 mM glucose.
Cell Seeding in 24-Well Plates • Chang cells are cultured according to procedures described in MRC cell culture SOPs: TC-B2a Thawing of cells and TC-B1a Cell line maintenance—general principles. Make sure cells are in the log phase (i.e. <70% confluence) and less than 20 passages. • Harvest cells using 0.25% (w/v) Trypsin/0.53 mM EDTA solution. • Count cells and resuspend to 30 000 cells/ml (Chang cell seeding density for 24-well plate=30 000 cells/ml) in EMEM (with pyruvate and NEAA, but without L-glutamate (Lonza, USA) containing 10% FBS (Gibco, UK) and pipette 1 ml/well cell suspension to a 24-well plate corresponding to 30 000 cells/well.
• after 3 days of cell growth, aspirate medium • wash cells once with pre-warmed DPBS at 37° C. • add 500 μl of pre-warmed 37° C. DMEM/0.1% BSA (without phenol red, glucose and pyruvate) to serum starve cells to remove residual glucose and FBS • incubate at 37° C. in humidified air and 5% CO2 for 30 min • aspirate DMEM/0.1% BSA (without phenol red, glucose and pyruvate) • Prepare test dilutions as specified in the plate layout (see below) • add 500 μl pre-warmed 37° C. of test dilution per well according to plate layout • incubate at 37° C. in humidified air and 5% CO2 for 3 hrs • remove test medium and wash cells once with DPBS (37° C.) • add 250 μl of test medium containing 0.5 μCi/ml ^3H-2-DOG to each well use (0.5 μl ^3H to 1 ml medium) • Incubate cells at 37° C. in humidified air and 5% CO2 for 15 min • Aspirate medium • To stop the reaction, wash cells twice with ice-cold DPBS • Aspirate DPBS and ensure that wells are as dry as possible • Lyse cells by adding 1 ml of 0.3N NaOH/1% SDS and incubate at 37° C. for at least 45 min • Mix cell lysate thoroughly before subsequent use in LSC and Bradford protein determination

The EC50 is the concentration needed to bring the measured effect to its halfway point. High values mean lower potency in that assay, low ones higher potency in that assay.

For `CN(C)C(=N)N=C(N)N` [Metformin, reference compound], in assay [1], the Glucose conc. amounted to 3.27 nM/ul, the “Glucose Uptake” value is on record as 2.73 nM/ul and the “% uptake” value was 117.14%.
With `COC(=O)/C(=C/c1ccccc1)O[C@@H]1O[C@H](CO)[C@@H](O)[C@H](O)[C@H]1O` [RX-1 acrylate, (Z)-Methyl 3-phenyl-2-((2S,3R,4S,5S,6R)-3,4,5-trihydroxy-6-(hydroxymethyl)tetra hydro-2H-pyran-2-yloxy)acrylate], in assay [1], the “glucose uptake over a 3 hour culture period” value is “significantly increased”, the Glucose conc. was 2.82 nM/ul, the “Glucose Uptake” value came out at 3.16 nM/ul and the “% uptake” value is 135.53%.
The corresponding values for `COC(=O)/C(=C/c1ccccc1)O[C@@H]1O[C@H](COC(C)=O)[C@@H](OC(C)=O)[C@H](OC(C)=O)[C@H]1OC(C)=O` [RX-1 triacetate, (2R,3R,4S,5R,6S)-2-(Acetoxymethyl)-6-((Z)-3-methoxy-3-oxo-1-phenylprop-1-en-2-yloxy)tetrahydro-2H-pyran-3,4,5-triyl triacetate] are “significantly increased”, 2.92 nM/ul, 3.05 nM/ul and 130.78%.
In assay [2], `O=C(O)/C(=C/c1ccccc1[N+](=O)[O-])O[C@H]1O[C@@H](CO)[C@H](O)[C@@H](O)[C@@H]1O` [RX-2, (Z)-3-(2-Nitrophenyl)-2-(((2R,3S,4R,5R,6S)-3,4,5-trihydroxy-6-(hydroxymethyl)tetrahydro-2H-pyran-2-yl)oxy)acrylic acid] yielded an EC50 of 9.35 µM.
On the same count and under the same terms, under `O=C(O)/C(=C/c1ccccc1F)O[C@H]1O[C@@H](CO)[C@H](O)[C@@H](O)[C@@H]1O` [RX-4, (Z)-3-(2-Fluorophenyl)-2-(((2R,3S,4R,5R,6S)-3,4,5-trihydroxy-6-(hydroxymethyl)tetrahydro-2H-pyran-2-yl)oxy)acrylic acid] stands 80.8 µM.
For the compound `O=C(O)/C(=C/c1cccc(F)c1)O[C@H]1O[C@@H](CO)[C@@H](O)[C@@H](O)[C@@H]1O` [RX-5, (Z)-3-(3-Fluorophenyl)-2-(((2R,3S,4R,5S,6S)-3,4,5-trihydroxy-6-(hydroxymethyl)tetrahydro-2H-pyran-2-yl)oxy)acrylic acid], the EC50 in assay [2] is 114 µM.
The same measure, in the same setting: under `O=C(O)/C(=C/c1cccc(C(F)(F)F)c1)O[C@H]1O[C@@H](CO)[C@@H](O)[C@@H](O)[C@@H]1O` [RX-10, (Z)-3-(3-(Trifluoromethyl)phenyl)-2-(((2R,3S,4R,5S,6S)-3,4,5-trihydroxy-6-(hydroxymethyl)tetrahydro-2H-pyran-2-yl)oxy)acrylic acid] stands 105 µM.
On the same count and under the same terms, under `O=C(O)/C(=C/c1c(F)cccc1Cl)O[C@H]1O[C@@H](CO)[C@@H](O)[C@@H](O)[C@@H]1O` [RX-16, (Z)-3-(2-Chloro-6-fluorophenyl)-2-(((2R,3S,4R,5S,6S)-3,4,5-trihydroxy-6-(hydroxymethyl)tetrahydro-2H-pyran-2-yl)oxy)acrylic acid] stands 6.99 µM; under `Cc1cccc(/C=C(\O[C@H]2O[C@@H](CO)[C@@H](O)[C@@H](O)[C@@H]2O)C(=O)O)c1` [RX-18, (Z)-3-(m-Tolyl)-2-(((2R,3S,4R,5S,6S)-3,4,5-trihydroxy-6-(hydroxymethyl)tetrahydro-2H-pyran-2-yl)oxy)acrylic acid], 9.5 µM.
Same read-out and setting: under `Cc1cccc(/C=C(\O[C@H]2O[C@@H](CO)[C@H](O)[C@@H](O)[C@@H]2O)C(=O)O)c1` [RX-19, (Z)-3-(m-Tolyl)-2-(((2R,3S,4R,5R,6S)-3,4,5-trihydroxy-6-(hydroxymethyl)tetrahydro-2H-pyran-2-yl)oxy)acrylic acid] stands 181 µM; under `O=C(O)/C(=C/c1cccc(C(F)(F)F)c1)O[C@H]1O[C@@H](CO)[C@H](O)[C@@H](O)[C@@H]1O` [RX-20, (Z)-3-(3-(Trifluoromethyl)phenyl)-2-(((2R,3S,4R,5R,6S)-3,4,5-trihydroxy-6-(hydroxymethyl)tetrahydro-2H-pyran-2-yl)oxy)acrylic acid], 5.7 µM.
Regarding `O=C(O)/C(=C/c1ccccc1Cl)O[C@H]1O[C@@H](CO)[C@@H](O)[C@@H](O)[C@@H]1O` [RX-21, (Z)-3-(2-Chlorophenyl)-2-(((2R,3S,4R,5S,6S)-3,4,5-tri hydroxy-6-(hydroxymethyl)tetrahydro-2H-pyran-2-yl)oxy)acrylic acid], in assay [2], the EC50 worked out at 286 µM.
As to Insulin, in assay [1], the Glucose conc. was determined as 2.86 nM/ul, the “Glucose Uptake” value is listed as 3.13 nM/ul and the “% uptake” value worked out at 134.03%.
